Data: patent US5958943A, “[A]-anellated pyrrole derivatives and their use in pharmacology” (Merckle GmbH, priority 1994, dated 1999)

Legend:
[1] = system: mouse; assay: Formalin analgesia test in the mouse p.o.; format: in vivo
Text: The spectrum of efficacy of the compounds was also investigated using the following tests:
2) Formalin analgesia test in the mouse p.o., B. Rubin et al., Endocrinol.,49:429-439, 1951;

[2] = target: T1, 5-lipoxygenase (Bos taurus, UniProt F1MQ78); assay: Inhibition of 5-lipoxygenase (LO), according to Dannhardt et al.; format: biochemical; conditions: Table 1 column IC50 LO/CO, first value
T1 construct: endogenous in cells
T1 sequence (F1MQ78 1-674): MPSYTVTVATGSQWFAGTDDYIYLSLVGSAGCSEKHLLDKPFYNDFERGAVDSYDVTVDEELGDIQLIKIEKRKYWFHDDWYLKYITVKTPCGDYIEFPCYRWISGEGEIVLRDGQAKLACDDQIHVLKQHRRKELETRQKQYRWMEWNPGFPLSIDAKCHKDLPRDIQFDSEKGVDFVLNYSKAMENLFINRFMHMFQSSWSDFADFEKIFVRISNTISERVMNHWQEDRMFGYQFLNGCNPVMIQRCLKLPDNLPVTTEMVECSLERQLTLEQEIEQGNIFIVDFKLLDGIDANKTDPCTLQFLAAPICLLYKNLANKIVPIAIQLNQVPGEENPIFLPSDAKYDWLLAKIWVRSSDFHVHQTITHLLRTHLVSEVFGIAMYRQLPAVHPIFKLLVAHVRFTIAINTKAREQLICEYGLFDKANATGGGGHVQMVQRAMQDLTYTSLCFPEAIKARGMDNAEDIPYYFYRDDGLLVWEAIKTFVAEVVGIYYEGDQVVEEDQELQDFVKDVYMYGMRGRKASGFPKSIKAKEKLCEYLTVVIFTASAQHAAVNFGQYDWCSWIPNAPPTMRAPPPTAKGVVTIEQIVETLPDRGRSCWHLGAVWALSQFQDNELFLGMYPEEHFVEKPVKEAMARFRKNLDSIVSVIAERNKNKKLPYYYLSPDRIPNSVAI
Text: (§1) The efficacy of the compounds according to the invention can be determined from the inhibition of 5-lipoxygenase or cyclooxygenase. Experiments have be carried out according to Dannhardt et al., J. Pharm. Pharmacol. 1992, 44: 419-424.

[3] = target: T2, cyclooxygenase (Bos taurus, UniProt O62664); assay: Inhibition of cyclooxygenase (CO), according to Dannhardt et al.; format: biochemical; conditions: Table 1 column IC50 LO/CO, second value
T2 construct: endogenous in cells
T2 sequence (O62664 25-600): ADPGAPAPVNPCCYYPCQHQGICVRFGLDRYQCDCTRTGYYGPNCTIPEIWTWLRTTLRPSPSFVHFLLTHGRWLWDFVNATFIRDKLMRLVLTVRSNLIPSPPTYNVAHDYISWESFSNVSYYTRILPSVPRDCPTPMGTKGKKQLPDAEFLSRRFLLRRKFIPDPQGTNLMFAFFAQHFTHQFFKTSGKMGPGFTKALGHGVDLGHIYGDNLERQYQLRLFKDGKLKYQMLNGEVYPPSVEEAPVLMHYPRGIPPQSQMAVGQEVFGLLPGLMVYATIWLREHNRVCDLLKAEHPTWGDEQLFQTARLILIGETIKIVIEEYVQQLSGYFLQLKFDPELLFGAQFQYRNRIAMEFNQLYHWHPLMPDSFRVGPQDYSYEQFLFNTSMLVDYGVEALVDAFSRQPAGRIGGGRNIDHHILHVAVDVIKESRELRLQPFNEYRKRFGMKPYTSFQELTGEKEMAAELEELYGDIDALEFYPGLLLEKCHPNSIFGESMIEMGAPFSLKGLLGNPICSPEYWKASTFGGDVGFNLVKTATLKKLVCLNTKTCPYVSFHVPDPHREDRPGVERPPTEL
Text: as §1

CC1(C)Cc2c(-c3ccccc3)c(-c3ccc(Cl)cc3)c(CC(=O)O)n2C1 [corresponding 4-chlorophenyl derivative, reference compound]
minimal effective dose ([1]; po, formalin analgesia model of the mouse, comparison compound, read-out: MED): 100 mg/kg

CC1(C)Cc2c(-c3ccccc3)c(-c3ccc(Cl)s3)c(CC(=O)O)n2C1 [Example 1]
IC50 [2]: 400 nM | IC50 [3]: 200 nM | times more analgesically effective than the corresponding 4-chlorophenyl derivative ([1]; in vivo, compared with the corresponding 4-chlorophenyl derivative): 10 times
